We go through 1 molecule from patent US8575161B2, “Benzofurane, benzothiophene, benzothiazol derivatives as FXR modulators” (Merck Patent GmbH, priority 2008, dated 2013).

The structures appear in SMILES notation.

The assay deals with T1, human Farsenoid X Receptor ligand binding domain - GST fusion protein (GST-FXR LBD) (Homo sapiens, UniProt Q96RI1).
T1 construct: Human FXR-LBD (amino acid 248-476); made in house; host or cells: E. coli BL21
T1 sequence (Q96RI1 248-476 isoform Q96RI1-1): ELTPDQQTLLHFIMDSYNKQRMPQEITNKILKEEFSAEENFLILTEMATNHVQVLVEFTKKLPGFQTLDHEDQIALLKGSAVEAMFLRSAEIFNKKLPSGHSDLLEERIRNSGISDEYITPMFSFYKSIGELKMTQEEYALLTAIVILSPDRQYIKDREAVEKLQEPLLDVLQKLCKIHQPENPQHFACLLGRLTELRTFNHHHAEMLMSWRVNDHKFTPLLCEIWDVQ
Kind of assay: FXR-SRC-1 Cofactor Recruitment Assay (time-resolved fluorescence energy transfer). The format is biochemical. The following applies: SRC-1 peptide recruitment, 1 hour at room temperature.

Text: BIOLOGICAL EXPERIMENTS FXR-SRC-1 Cofactor Recruitment Assay
GST-LBD is labelled with a europium chelate (donor) via a europium-tagged anti-GST antibody, and the co-activator peptide is labelled with allophycocyanin-APC (acceptor) via a streptavidin-biotin linkage.
In the presence of an agonist for the nuclear receptor, the peptide is recruited to the GST-LBD, bringing europium and allophycocyanin into close proximity to enable energy transfer from the europium chelate to the allophycocyanin. Upon excitation of the complex with light at 340 nm, excitation energy absorbed by the europium chelate is transmitted to the allophycocyanin moiety resulting in emission at 665 nm. […] The activity of a nuclear receptor agonist can be measured by determining the ability of a compound to bind the nuclear receptor in this test (EC50) and compare to the ability of reference compound to bind this same nuclear receptor. […]
A mix without peptide (same than peptide mix were peptide was replaced by water) was also set-up and for each compound (each concentration tested) a basal fluorescence level was determined in order to detect self-fluorescent compounds. […]
Plates were incubated 1 hour at room temperature and fluorescence was read on a time resolved mode on a Wallac/Perkin Elmer Victor2 counter.
For each compound concentration, fluorescent signal ratio: F665/F615×1000 was calculated. […]

`O=C(O)c1cc2c(Br)c(N3CCC(N(C(=O)C4CC4)c4ccc(Cl)cc4Cl)CC3)ccc2o1` [Example 165, 4-Bromo-5-{4-[cyclopropanecarbonyl-(2,4-dichloro-phenyl)-amino]-piperidin-1-yl}-benzofuran-2-carboxylic acid]: the EC50 came out at 106 nM.

Broadly, the EC50 is the midpoint of the concentration-response curve. Lower therefore signals greater potency.
